43 compounds from ChEMBL document CHEMBL1136945, “Antimalarial activity of thiosemicarbazones and purine derived nitriles” (Bioorg Med Chem Lett, 2009) can be followed below.

The EC50 is the concentration at which the effect is half-maximal. Read a low EC50 as an effect from little substance.

Structures are written as SMILES.

What all share (type): functional, organism-based
Test [1] relates to Plasmodium falciparum. The experiment in a line: (§1) Antimalarial activity as reduced parasitaemia after 72 hrs against chloroquine-resistant Plasmodium falciparum K1 infected human O+ erythrocytes by DNA stain without pepstatin. The conditions noted are these: K1, 72 h.
Test [2] has as its system Plasmodium falciparum. Described as §1. As to conditions: K1, 72 h. This is another data set of the same source.
Test [3] deals with Plasmodium falciparum. Description: Antimalarial activity as reduced parasitaemia after 72 hrs against chloroquine-sensitive Plasmodium falciparum 3D7 infected human O+ erythrocytes by DNA stain without pepstatin. The conditions noted are these: 3D7, 72 h.
Test [4] has as its system Plasmodium falciparum. The experiment in a line: Antimalarial activity as reduced parasitaemia after 72 hrs against chloroquine-sensitive Plasmodium falciparum 3D7 infected human O+ erythrocytes by DNA stain with pepstatin. The conditions noted are these: 3D7, 72 h.

`N#Cc1nc(NCc2cccc(-c3ccccc3)c2)c2ncn(CCCO)c2n1`: the EC50 in test [1] was above 30 µM; in test [2], above 30 µM; in test [3], above 30 µM; in test [4], 30 µM.

`N#Cc1nc(NCc2ccccc2)c2c(n1)N(Cc1ccccc1)CN2`: the EC50 in test [1], in test [2], in test [3] and in test [4] was above 30 µM each time.

For the compound `Cc1ccccc1-c1cccc(CNc2nc(C#N)nc3c2ncn3CCCO)c1`, the EC50 in test [1], in test [2], in test [3] and in test [4] was 30 µM in each case.

As for `CCCC/C(=N\NC(N)=S)c1ccc(Cl)c(Cl)c1`, the EC50 in test [1], in test [2], in test [3] and in test [4] was above 30 µM throughout.

As for `N#Cc1nc(NCc2ccc(-c3cccs3)cc2)c2ncn(CCCO)c2n1`, the EC50 in test [1], in test [2], in test [3] and in test [4] was 30 µM each time.

Take `N#Cc1nc(NCc2ccc(Cl)c(Cl)c2)c2c(n1)N(CCCC(=O)O)CN2`: the EC50 in test [1], in test [2], in test [3] and in test [4] was above 30 µM each time.

As to `CC(C)Oc1ccccc1-c1cccc(CNc2nc(C#N)nc3c2ncn3CCCO)c1`, the EC50 in test [1], in test [2], in test [3] and in test [4] was 30 µM in each case.

Regarding `COc1ccc(CN2CNc3c(NCc4ccccc4)nc(C#N)nc32)cc1`, the EC50 in test [1], in test [2], in test [3] and in test [4] was above 30 µM each time.

For the compound `COCC(CN1CNc2c(NCc3ccc(Cl)c(Cl)c3)nc(C#N)nc21)OC` (configuration not stated), the EC50 in test [1] was above 30 µM; in test [2], above 30 µM; in test [3], above 30 µM; in test [4] it was 30 µM.

`N#Cc1nc(NCc2ccc(Cl)c(Cl)c2)c2c(n1)N(CCCO)CN2`: the EC50 in test [1], in test [2], in test [3] and in test [4] was above 30 µM in each case.

For `C=Cc1ccc(-c2cccc(CNc3nc(C#N)nc4c3ncn4CCCO)c2)cc1`, the concentration for a half-maximal effect (EC50) in test [1], in test [2], in test [3] and in test [4] was above 30 µM each time.

Take `COc1ccc(CNc2nc(C#N)nc3c2NCN3C2CCCC2)cc1`: the EC50 in test [1], in test [2], in test [3] and in test [4] was above 30 µM throughout.

Turning to `N#Cc1nc(NCc2ccc(Cl)c(Cl)c2)c2c(n1)N(Cc1ccccc1)CN2`, the EC50 in test [1] was above 30 µM; in test [2] it was 30 µM; in test [3] it was above 30 µM; in test [4], 30 µM.

`NC(=S)N/N=C(/C=C/c1ccccc1)c1cccc(C(F)(F)F)c1`: the EC50 in test [1], in test [2], in test [3] and in test [4] was 30 µM throughout.

Consider `COC(=O)c1cccc(-c2cccc(CNc3nc(C#N)nc4c3ncn4CCCO)c2)c1`, for which the half-maximal effective concentration (EC50) in test [1], in test [2], in test [3] and in test [4] was above 30 µM throughout.

As to `CCCCN1CNc2c(NCc3ccc(Cl)cc3)nc(C#N)nc21`, the EC50 in test [1] was 30 µM; in test [2], above 30 µM; in test [3], above 30 µM; in test [4], 30 µM.

For the compound `N#Cc1nc(NCc2ccc(Cl)cc2)c2c(n1)N(Cc1ccccc1)CN2`, the EC50 in test [1] was above 30 µM; in test [2] it was 30 µM; in test [3], above 30 µM; in test [4], 30 µM.

As for `N#Cc1nc(NCc2ccc(Cl)cc2)c2c(n1)N(Cc1cccc(C(F)(F)F)c1)CN2`, the EC50 in test [1] is above 30 µM; in test [2], 30 µM; in test [3], above 30 µM; in test [4], 30 µM.

Consider `Cc1cccc(/C(=N/NC(N)=S)c2cccc(F)c2)c1`, for which the EC50 in test [1], in test [2], in test [3] and in test [4] was above 30 µM each time.

With `CCCCN1CNc2c(NCc3ccc(Br)cc3)nc(C#N)nc21`, the half-maximal effective concentration (EC50) was 30 µM in test [1], above 30 µM in test [2], above 30 µM in test [3] and 30 µM in test [4].

Turning to `N#Cc1nc(NCc2ccc(F)cc2)c2c(n1)N(Cc1ccccc1)CN2`, the EC50 in test [1], in test [2], in test [3] and in test [4] was above 30 µM throughout.

`CC(C)Oc1c(Br)cccc1-c1cccc(CNc2nc(C#N)nc3c2ncn3CCCO)c1`: the EC50 in test [1] is above 30 µM; in test [2], above 30 µM; in test [3] it was 30 µM; in test [4], 30 µM.

For the compound `N#Cc1nc(NCc2ccccc2)c2c(n1)N(CCCO)CN2`, the EC50 in test [1], in test [2], in test [3] and in test [4] was above 30 µM each time.

As to `COc1cc(OC)c(-c2cccc(CNc3nc(C#N)nc4c3ncn4CCCO)c2)cn1`, the EC50 in test [1], in test [2], in test [3] and in test [4] was above 30 µM throughout.

For `NC(=S)N/N=C(/CCc1ccccc1)c1cc(C(F)(F)F)cc(C(F)(F)F)c1`, the EC50 in test [1], in test [2], in test [3] and in test [4] was 30 µM throughout.

In the case of `CCCCCCNc1nc(C#N)nc2c1NCN2Cc1ccccc1`, the EC50 in test [1], in test [2], in test [3] and in test [4] was above 30 µM in each case.

As to `CCCCN1CNc2c(NCCc3ccccc3)nc(C#N)nc21`, the EC50 in test [1], in test [2], in test [3] and in test [4] was above 30 µM in each case.

Turning to `CCCCN1CNc2c(NCc3ccc(Cl)c(Cl)c3)nc(C#N)nc21`, the EC50 is above 30 µM in test [1], above 30 µM in test [2], above 30 µM in test [3] and 30 µM in test [4].

As to `CCCCN1CNc2c(NCc3ccc(OC)cc3)nc(C#N)nc21`, the EC50 in test [1], in test [2], in test [3] and in test [4] was above 30 µM throughout.

As for `N#Cc1nc(NCc2ccccc2)c2c(n1)N(Cc1cccc(C(F)(F)F)c1)CN2`, the EC50 in test [1], in test [2], in test [3] and in test [4] was 30 µM throughout.

Take `COc1ccc(-c2cccc(CNc3nc(C#N)nc4c3ncn4CCCO)c2)cc1`: the EC50 in test [1], in test [2], in test [3] and in test [4] was above 30 µM throughout.

On to `CC(=O)Nc1cccc(CNc2nc(C#N)nc3c2ncn3CCCO)c1`, for which the concentration giving a half-maximal response (EC50) in test [1] was determined as 15 µM; in test [2] it was 11 µM; in test [3], 15 µM; in test [4], 6 µM.

With `Cc1ccc(/C(=N/NC(N)=S)c2cc(Cl)cc(Cl)c2)cc1`, the concentration for a half-maximal effect (EC50) was above 30 µM in test [1], above 30 µM in test [2], above 30 µM in test [3] and 30 µM in test [4].

Turning to `COCCCN1CNc2c(NCc3ccc(Cl)c(Cl)c3)nc(C#N)nc21`, the concentration giving a half-maximal response (EC50) in test [1] is above 30 µM; in test [2], above 30 µM; in test [3] it was above 30 µM; in test [4], 30 µM.

Take `CC(=O)Nc1ccc(CNc2nc(C#N)nc3c2ncn3CCCO)cc1`: the EC50 in test [1], in test [2], in test [3] and in test [4] was 30 µM each time.

In the case of `NC(=S)N/N=C(\c1cc(Cl)cc(Cl)c1)c1cccs1`, the EC50 was above 30 µM in test [1], above 30 µM in test [2], above 30 µM in test [3] and 30 µM in test [4].

As for `CCCCN1CNc2c(NCc3ccc(F)cc3)nc(C#N)nc21`, the EC50 in test [1], in test [2], in test [3] and in test [4] was above 30 µM each time.

For `Cc1ccc(/C(=N/NC(N)=S)c2cccc(C(F)(F)F)c2)cc1`, the EC50 is above 30 µM in test [1], above 30 µM in test [2], above 30 µM in test [3] and 30 µM in test [4].

`N#Cc1nc(NCc2cccc(-c3cc(Cl)cc(Cl)c3)c2)c2ncn(CCCO)c2n1`: the EC50 in test [1], in test [2], in test [3] and in test [4] was above 30 µM throughout.

As to `N#Cc1nc(NCCc2ccccc2)c2c(n1)N(Cc1ccccc1)CN2`, the EC50 in test [1], in test [2], in test [3] and in test [4] was above 30 µM in each case.

On to `N#Cc1nc(NCc2cccc(-c3cccnc3)c2)c2ncn(CCCO)c2n1`, for which the concentration for a half-maximal effect (EC50) in test [1], in test [2], in test [3] and in test [4] was above 30 µM throughout.

As to `N#Cc1nc(NCc2cccc(-c3ccco3)c2)c2ncn(CCCO)c2n1`, the EC50 in test [1], in test [2], in test [3] and in test [4] was above 30 µM in each case.

For `CCC(C)CNc1nc(C#N)nc2c1NCN2Cc1ccccc1` (configuration not stated), the EC50 in test [1] was above 30 µM; in test [2] it was above 30 µM; in test [3], above 30 µM; in test [4] it was 30 µM.
